“And” between values parts separate entries of the source, which are not always exact repeats. Equal entries are not always repeated.
Experiments:
[1] = system: SCF; experiment: SCF serum level by ELISA after PTH; format: in vivo, C57BL/6 mice; conditions: day 6 of PTH stimulation
Description: (§1) Mice were divided into the following groups: 1) administration of saline daily for 6 days, sacrificed at day 7 (n=6). 2) administration of PTH (Bachem) daily for 6 consecutive days (80 μg per kg body weight per day, intraperitoneally), sacrificed at day 7 (n=6). 3) administration of PTH daily for 14 consecutive days, sacrificed at day 15 (n=6). 4) administration of G-CSF (Amgen Biologicals) daily for 5 consecutive days (200 μg per kg body weight per day, intraperitoneally), sacrificed at day 6 (n=6).
(§2) G-CSF and SCF serum levels were determined by ELISA (Mouse G-CSF and Mouse SCF, RayBiotech).

[2] = system: G-CSF; experiment: G-CSF serum level by ELISA after PTH; format: in vivo, C57BL/6 mice
Description: as §1, §2

[3] = system: VEGF-A and VEGF-R1; experiment: VEGF-A/VEGF-R1 expression in infarct and borderzone after MI, PTH treatment; format: in vivo, mice
From the text: FIGS. 18A-18B: Immunohistochemical staining of VEGF-A protein in the granulation tissue at the infarct borderzone and RT-PCR analysis of VEGF-A/VEGF-R1 expression • A) Representative staining of VEGF-A protein (brown) in the granulation tissue of sham operated (left), saline (middle) and PTH treated hearts (right). VEGF-A protein is mainly localized on infiltrated cells in the granulation tissue at the borderzone. • B) Bar graphs representing the relative fold increase of VEGF-A (left) and VEGF-1 receptor (right) mRNA expression of saline treated (n=3, striped bars) and of PTH treated myocardial tissue (n=3-5, black bars) normalized to non infarcted control mice (n=3) 48 hours after myocardial infarction. *p<0.05.

[4] = system: CD45 positive stem cells in peripheral blood; experiment: Mobilization of bone marrow derived cells by PTH(1-34), flow cytometry of peripheral blood; format: in vivo, C57BL/6 mice
Description: 8-12 week old C57BL/6 mice (n=5) were either treated with PTH (80 μg/kg/d) or saline daily for 5 or 14 consecutive days. At day 6 and day 14, 1 ml of peripheral blood was harvested from each mouse by aspirating the carotid artery. To define the number of leukocytes, heparinized blood samples were analyzed using a conventional hematological cell analyzer (Sysmex XE 2100). Mononuclear cells were separated by density-gradient centrifugation using Histopaque solution (1.077 g/ml, Sigma Chemicals), purified and resuspended in phosphate-buffered saline (PBS) containing 1% bovine serum albumin. Cells were incubated for 40 minutes in the dark at 4° C. with the following fluorescein-isothiocyanate (FITC), phycoerythrin (PE), and peridinin-chlorophyll-protein (PerCP) conjugated monoclonal antibodies: CD45− PerCP, CD34-FITC, CD31-PE, Sca-1-PE and c-kit-PE (all from BD Pharmingen). Matching isotype antibodies (BD Pharmingen) served as controls. Cells were analyzed by 3-color flow cytometry using a Coulter® Epics® XL-MCL™ flow cytometer (Beckman Coulter). Each analysis included 20000 events.

[5] = system: SDF-1; experiment: SDF-1 expression in ischemic myocardium after PTH treatment; format: in vivo, mice; conditions: 48 hours after PTH treatment
[6] = system: myocardial function; experiment: Pressure volume relations in vivo (conductance catheter) after MI, PTH treatment; parameters: species or system C57BL/6 mice
Description: Myocardial infarction was induced in male C57BL/6 mice 8-12 weeks of age by surgical occlusion of the left anterior descending artery (LAD) through a left anterolateral approach. Mice were anesthetized by intraperitoneal injection of a mixture of 100 mg/kg ketamine (Sigma Chemical Co., St. Louis, Mo.) and 5 mg/kg Xylazine (Sigma), intubated and artificially ventilated by a mouse ventilator (HUGO SACHS, March, Germany) with 200 strokes/min and 200 μl/stroke. Animal care and all experimental procedures were performed in strict accordance to the German and National Institutes of Health animal legislation guidelines and were approved by the local animal care and use committees.
After occlusion of the LAD, mice were divided into the following groups 1) subcutaneous administration of saline daily for 5 days, sacrificed at day 6 (n=10) and day 30 (n=15); 2) administration of rat PTH (1-34) daily for 5 and 14 consecutive days (80 μg/kg/d s.c., Bachem), sacrificed at day 6 (n=9) and day 30 (n=15); 3) sham operated animals sacrificed at day 30 (n=5), and not operated control animals receiving saline (n=6) sacrificed at day 6 and at day 30. All animals received BrdU ([…]) for 5 consecutive days. BrdU and cytokine treatment were started 12-24 hours after LAD occlusion.
For evaluation of pressure-volume relationships in vivo, surviving mice of the group 1) MI day 6 (n=6) and day 30 (n=6), 2) MI+PTH day 6 (n=6) and day 30 (n=6), and 3) sham (n=5) and control (n=6) animals were anesthetized with thiopental (100 mg/kg, i.p.), intubated and ventilated (MiniVent, HUGO SACHS, Freiburg, Germany). After catheterization via the right carotid artery an impedance-micromanometer catheter (Millar Instruments, Houston, Tex.) was introduced into the left ventricle. Raw conductance volumes were corrected for parallel conductance by the hypertonic saline dilution method. For absolute volume measurements, the catheter was calibrated with known volumes of heparin treated mouse blood. Pressure-volume signals were recorded at steady state and during transient preload reduction achieved by vena cava occlusion to obtain values independent of cardiac afterload^45. Data analyses were performed as previously described^44 using PVAN analysis software (HUGO SACHS, March, Germany).

With rat PTH (1-34) the “serum level of SCF” value [1] was 594.6 ± 26.8 pg/mL, the “increase of G-CSF serum value” ([2]; PTH treated mice, ELISA) was 2.8 fold and the “serum level of G-CSF” value ([2]; day 6 of PTH stimulation) was 6035.5 ± 1318.4 pg/mL. For the same substance, the “expression of VEGF-A and VEGF-R1” value [3] was “pronounced expression”, the “increase of CD45+/CD34+ cells” value ([4]; day 6) was 4.4 fold and the “increase of CD45+/CD34+/CD31+ cells” value ([4]; day 6) was 2.9 fold. The “increase of CD45+/CD34+/Sca-1+ cells” value ([4]; day 6) was 2.9 fold, the “increase of CD45+/CD34+/c-kit+ cells” value ([4]; day 6) was 6.1 fold and the “increase of CD45+/CD34+ cells” value ([4]; day 14) was 6.0 fold. For the same substance, the “increase of CD45+/CD34+/CD31+ cells” value ([4]; day 14) was 3.1 fold, the “increase of CD45+/CD34+/Sca-1+ cells” value ([4]; day 14) was 2.9 fold and the “increase of CD45+/CD34+/c-kit+ cells” value ([4]; day 14) was 9.0 fold. For the same substance, the “homing factor SDF-1 in the ischemic myocardium” value [5] was “upregulated”, the “maximum LV pressure” value ([6]; PTH treatment of sham operated animals) was 80.3±2.1 mmHg and the “arterial elastance (Ea)” value ([6]; day 6 after MI) was 6.1±0.5 mmHg/μl and 6.0 mmHg/μl. For the same substance, the cardiac output ([6]; day 6 after MI) was 5537 µL/min, the contractility ([6]; day 6 after MI) was 4742±394 mmHg/sec and the “ejection fraction (EF)” value ([6]; day 6 after MI) was 30%. The stroke work ([6]; day 6 after MI) was “increased”, the “diastolic function (Tau glantz)” value ([6]; day 6 after MI, vs saline) was “without significant changes” and the “arterial elastance (Ea)” value ([6]; day 30 after MI) was 7.2±0.5 mmHg/μl and 7.1 mmHg/μl. The cardiac output ([6]; day 30 after MI) was 3810±205, the “diastolic relaxation (Tau Glantz)” value ([6]; day 30 after MI) was 12.0 ± 0.8 ms and the “ejection fraction (EF)” value ([6]; day 30 after MI) was 29.0±7.1% and 29%. The “enddiastolic volume (EDV)” value ([6]; day 30 after MI) was 34.4±6.1 and the stroke work ([6]; day 30 after MI) was 382±59 mmHg×μl.
